Measured values as given in PubChem BioAssay AID328 (DTP/NCI, 2004).
Where “and” joins values, the source holds several entries; their conditions need not be identical. Identical values can stand only once. Inconclusive results and toxic doses are left out.

Test system: BDF1 mice, P388 leukemia ip, median survival T/C
Test: NCI In Vivo Anticancer Drug Screen. Data for tumor model P388 Leukemia (intraperitoneal) in B6D2F1 (BDF1) mice
Details: endpoint: median survival time, higher = longer survival
Summary of the method: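 Reported as T/C, where T is the survival measurement in dosed animals and C the same measurement in vehicle controls.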

[1] = dose: 100.0 mg/kg/injection, schedule: Q01DX009 (ip), vehicle: saline
[2] = dose: 200.0 mg/kg/injection, schedule: Q01DX009 (ip), vehicle: saline
[3] = dose: 6.25 mg/kg/injection, schedule: Q01DX009 (ip), vehicle: saline with Tween-80
[4] = dose: 25.0 mg/kg/injection, schedule: Q01DX009 (ip), vehicle: saline with Tween-80

Q: With `Cc1ccc(NC(=O)NC2CCCCC2)cc1` as the compound, how does the T/C (dose: 100.0 mg/kg/injection, schedule: Q01DX009 (ip), vehicle: saline with Tween-80) read?
A: 91 % of control

Q: And the T/C (dose: 200.0 mg/kg/injection, schedule: Q01DX009 (ip), vehicle: saline with Tween-80)?
A: 88 % of control

Q: And the T/C (dose: 400.0 mg/kg/injection, schedule: Q01DX009 (ip), vehicle: saline with Tween-80)?
A: 100 % of control

Q: How did the T/C (dose: 100.0 mg/kg/injection, schedule: Q04DX003 (ip), vehicle: Klucel (hydroxypropylcellulose) (HPC)) turn out when `O=C1c2ccccc2C(=O)c2cc3cc(Cl)ccc3cc21` was run?
A: 90 % of control

Q: What about the T/C (dose: 200.0 mg/kg/injection, schedule: Q04DX003 (ip), vehicle: Klucel (hydroxypropylcellulose) (HPC)) of the same compound?
A: 90 % of control

Q: And the T/C (dose: 400.0 mg/kg/injection, schedule: Q04DX003 (ip), vehicle: Klucel (hydroxypropylcellulose) (HPC))?
A: 90 % of control

Q: For `O=c1c(O)c(-c2ccc(O)c(O)c2)oc2cc(O)cc(O)c12`, which T/C (dose: 15.0 mg/kg/injection, schedule: Q01DX009 (ip), vehicle: saline) is on record?
A: 118 % of control

Q: And the T/C (dose: 25.0 mg/kg/injection, schedule: Q01DX009 (ip), vehicle: saline)?
A: 108 % of control

Q: And the T/C (dose: 30.0 mg/kg/injection, schedule: Q01DX009 (ip), vehicle: saline)?
A: 109 % of control

Q: And the T/C (dose: 50.0 mg/kg/injection, schedule: Q01DX009 (ip), vehicle: saline)?
A: 97 % of control and 112 % of control

Q: What about the T/C [1] of the same compound?
A: 102 % of control and 117 % of control

Q: And the T/C (dose: 125.0 mg/kg/injection, schedule: Q01DX009 (ip), vehicle: saline)?
A: 118 % of control

Q: What about the T/C [2] of the same compound?
A: 110 % of control

Q: What about the T/C (dose: 300.0 mg/kg/injection, schedule: Q01DX009 (ip), vehicle: saline) of the same compound?
A: 97 % of control

Q: With `Nc1ncc(C(=O)O)c(N)n1` as the compound, how does the T/C (dose: 0.75 mg/kg/injection, schedule: Q01DX009 (ip), vehicle: saline with Tween-80) read?
A: 87 % of control

Q: And the T/C (dose: 1.5 mg/kg/injection, schedule: Q01DX009 (ip), vehicle: saline with Tween-80)?
A: 104 % of control

Q: What about the T/C (dose: 3.0 mg/kg/injection, schedule: Q01DX009 (ip), vehicle: saline with Tween-80) of the same compound?
A: 91 % of control

Q: What about the T/C [3] of the same compound?
A: 88 % of control

Q: And the T/C (dose: 12.5 mg/kg/injection, schedule: Q04DX003 (ip), vehicle: saline with Tween-80)?
A: 100 % of control

Q: What about the T/C [4] of the same compound?
A: 111 % of control

Q: And the T/C (dose: 25.0 mg/kg/injection, schedule: Q04DX003 (ip), vehicle: saline with Tween-80)?
A: 100 % of control

Q: And the T/C (dose: 50.0 mg/kg/injection, schedule: Q04DX003 (ip), vehicle: saline with Tween-80)?
A: 100 % of control

Q: Which T/C [1] does the source give for `CCCC#CCOCC(O)CCl` (stereo not drawn) here?
A: 104 % of control

Q: And the T/C (dose: 100.0 mg/kg/injection, schedule: Q04DX003 (ip), vehicle: saline with Tween-80)?
A: 104 % of control

Q: What about the T/C [2] of the same compound?
A: 109 % of control

Q: What about the T/C (dose: 200.0 mg/kg/injection, schedule: Q04DX003 (ip), vehicle: saline with Tween-80) of the same compound?
A: 108 % of control

Q: For `Nc1nc(N)c(-c2ccccc2)c(C(=O)O)n1`, which T/C (dose: 100.0 mg/kg/injection, schedule: Q01DX001 (ip), vehicle: Klucel (hydroxypropylcellulose) (HPC)) is on record?
A: 109 % of control

Q: And the T/C (dose: 200.0 mg/kg/injection, schedule: Q01DX001 (ip), vehicle: Klucel (hydroxypropylcellulose) (HPC))?
A: 118 % of control

Q: And the T/C (dose: 400.0 mg/kg/injection, schedule: Q01DX001 (ip), vehicle: Klucel (hydroxypropylcellulose) (HPC))?
A: 113 % of control

Q: Which results are given for `COc1cc2c(c(OC)c1OC)-c1ccc(OC)c(=O)cc1[C@@H](NC(=O)c1ccccc1)CC2`?
A: T/C (dose: 0.06 mg/kg/injection, schedule: Q01DX009 (ip), vehicle: saline sonified): 112 % of control; T/C (dose: 0.12 mg/kg/injection, schedule: Q01DX009 (ip), vehicle: saline sonified): 116 % of control; T/C (dose: 0.5 mg/kg/injection, schedule: Q01DX009 (ip), vehicle: saline sonified): 163 % of control; T/C (dose: 1.0 mg/kg/injection, schedule: Q01DX009 (ip), vehicle: saline sonified): 190 % of control; T/C (dose: 2.0 mg/kg/injection, schedule: Q01DX009 (ip), vehicle: saline sonified): 254 % of control and 109 % of control; T/C (dose: 3.3 mg/kg/injection, schedule: Q04DX003 (ip), vehicle: saline): 159 % of control; T/C (dose: 4.0 mg/kg/injection, schedule: Q01DX009 (ip), vehicle: saline sonified): 272 % of control; T/C (dose: 5.0 mg/kg/injection, schedule: Q04DX003 (ip), vehicle: saline): 200 % of control; T/C (dose: 6.0 mg/kg/injection, schedule: Q01DX009 (ip), vehicle: saline sonified): 162 % of control; T/C (dose: 7.5 mg/kg/injection, schedule: Q04DX003 (ip), vehicle: saline): 204 % of control

Q: `C=Cc1c(C)c(O)cc2c1-c1ccc(O)c(C)c1CC2` was tested. Which T/C [3] did it give?
A: 104 % of control

Q: And the T/C (dose: 12.5 mg/kg/injection, schedule: Q01DX009 (ip), vehicle: saline with Tween-80)?
A: 104 % of control

Q: And the T/C [4]?
A: 104 % of control

Q: What about the T/C (dose: 50.0 mg/kg/injection, schedule: Q01DX009 (ip), vehicle: saline with Tween-80) of the same compound?
A: 100 % of control
